Test results: patent US12234499B2, “Compositions, methods, systems and/or kits for detecting antimicrobial resistance in bacteria” (priority 2016, dated 2025)

Key:
Experiment in all cases: Growth of enteric bacteria in the presence of TEM (FIG. 1)
Type in all cases: cell-based
[1] = tested on: enteric bacteria expressing Class A carbapenemase; conditions: Class A enteric bacterial strains
Procedure: (§1) Non-limiting embodiments of detection tests for enteric and non-fermenting bacteria, with various concentration ranges of one or more antibiotics, and various concentration ranges for one or more inhibitors are shown in FIG. 1-FIG. 24 and FIG. 31. These figures illustrate the concentration of the antibiotic being tested (in μg/ml) along the x-axis (not every concentration is tested in every figure), and the amount of growth of bacteria in the sample in the y-axis. The boxes illustrate the median, interquartile range, non-outlier minimum and maximum; with asterisks representing single outliers. Each figure has a panel for Class A, Class B, and Class D producing bacteria, as well as a panel for non-carbapenemase producing bacteria (NEG). In some embodiments, the detection tests described herein are not performed by imaging a change in cell morphology.
(§2) By way of example, FIG. 1 illustrates a test of various enteric bacteria grown in the presence of several concentrations of TEM.
(§3) In some embodiments, the detection tests can comprise a plurality of wells comprising enteric bacteria and TEM over a range of concentrations of about 12 μg/ml to about 512 μg/ml (FIG. 1).

[2] = tested on: enteric bacteria expressing Class B carbapenemase
Procedure: as §1, §2, §3

[3] = tested on: enteric bacteria expressing Class D carbapenemase
Procedure: as §1, §2, §3

[4] = tested on: non-carbapenemase producing (NEG) enteric bacteria; conditions: nearly all NEG enteric bacteria
Procedure: as §1, §2, §3

CO[C@@]1(NC(=O)C(C(=O)O)c2ccsc2)C(=O)N2[C@@H](C(=O)O)C(C)(C)S[C@@H]21 (stereo partly drawn) [TEM, disodium 6beta-(2-carboxy-2-thien-3-ylacetamido)-6alpha-methoxypenicillanate]
concentration at which nearly all strains tested are inhibited [1]: 24 µg/mL
concentration at which bacteria begin to show sensitivity ([2]; Class B enteric bacteria, decrease in the average growth line): 48 µg/mL
concentration at which growth of most strains is inhibited ([2]; Class B enterics): 384 µg/mL
concentration reached before growth is affected ([3]; Class D enteric bacteria unaffected until this concentration): 192 µg/mL
MIC ([3]; bacteria expressing Class D, read-out: TEM concentration at which bacteria are sensitive (elevated MIC)): ≥ 128 µg/mL
sensitivity to TEM [4]: sensitive to lowest concentration
